Data taken from US6828345B2, “O-substituted 6-methyltramadol derivatives” (Gruenenthal GmbH, priority 2000, dated 2004).

What was measured:
[1] = test system: tail-flick pain latency in mice; assay: Tail-flick (focussed beam) test on mice; assay type: in vivo, NMR mice; settings: for ED50: Mus musculus
Excerpt: The analgesic effectiveness of the compounds according to the invention was investigated by the focussed beam (tail-flick) test in mice according to the method developed by D'Amour and Smith (J. Pharmaceutical. Exp. Ther. 72, 74 79 (1941)). NMR mice weighing between 20 and 24 g were used for this purpose. The animals were placed individually in special test cages and the base of the tail was subjected to a focused beam of light from an electric lamp (tail-flick type 55/12/10.fl, Labtec, Dr Hess). The lamp intensity was adjusted so that the time from when the lamp was switched on to the sudden withdrawal of the tail (pain latency) was 3 to 5 seconds in the case of untreated animals. Before administration of a compound according to the invention the animals were pre-tested twice within 5 minutes and the mean value of these measurements was calculated as a pre-test mean value. The pain measurements were carried out 20, 40 and 60 minutes after intravenous administration. The analgesic action was calculated as the increase in the pain latency (% MPE) according to the following formula: […]
Here T0 is the latency time before application of the substance and T1 the latency time after application of the substance, and T2 is the maximum exposure time (12 sec).
In order to determine the dose dependence the respective compound according to the invention was applied in 3 to 5 logarithmically increasing doses that included in each case the threshold dose and the maximal effect dose, and the ED50 values were determined by means of regression analysis. The ED50 calculation was carried out at the effect maximum 20 minutes after intravenous administration of the substance.

[2] = test system: phenylquinone-induced writhing reaction in mice; assay: Phenylquinone-induced writhing test in mice; assay type: in vivo, Male NMRI mice; settings: orally, phenylquinone i.p. 30 minutes after oral administration, writhing counted 5-20 minutes after phenylquinone; for ED50: Mus musculus, read-out: ED50 writhing inhibition
Description: The analgesic effectiveness of the compounds according to the invention was investigated in mice using the phenylquinone-induced writhing test as modified by I. C. Hendershot, J. Forsaith in J. Pharmacol. Exptl. Ther. 125, 237 (1959). Male NMRI mice weighing between 25 and 30 g were used for this purpose. Groups of 10 animals per substance dose received intraperitoneally 30 minutes after oral administration of a compound according to the invention, 0.3 ml per mouse of a 0.02% aqueous phenylquinone solution (phenylbenzoquinone, from Sigma, Deisenhofen; solution prepared by addition of 5% ethanol and storage in a water bath at 45° C.). The animals were then placed individually in observation cages. The number of pain-induced stretching movements (writhing reaction=contortion of the body accompanied by stretching of the rear extremities) was counted using a push-button counter 5-20 minutes after administration of the phenylquinone. The ED50 values (effective dose with 50% inhibition of the writhing reaction) were calculated with 95% level of confidence by means of regression analysis (evaluation program from Martens EDV-Service, Ekental) from the dose-dependent reduction in the writhing reaction compared to mice investigated in parallel to which only phenylquinone had been administered.

[3] = iv, 20 min, i.v., effect maximum 20 minutes after intravenous administration
[4] = i.v., effect maximum 20 minutes after intravenous administration

SMILES | ED50 [1, 3] | ED50 writhing inhibition [2] | further results
COc1cccc(C2(O)C(C)CCCC2CN(C)C)c1 (racemic) [Example 1, 2-dimethylaminomethyl-1-(3-methoxyphenyl)-6-methylcyclohexanol] | 5.6 mg/kg |  | 
CCOc1cccc(C2(O)C(C)CCCC2CN(C)C)c1 (racemic) [Example 2, 2-dimethylaminomethyl-1-(3-ethoxyphenyl)-6-methylcyclohexanol] | 11.9 mg/kg |  | 
CC1CCCC(CN(C)C)C1(O)c1cccc(O)c1 (racemic) [Example 3, 3-(2-dimethylaminomethyl-1-hydroxy-6-methyl-cyclohexyl)phenol] | 2.15 mg/kg | 2.09 mg/kg | 
C=CCOc1cccc(C2(O)C(C)CCCC2CN(C)C)c1 (racemic) [Example 4, 1-(3-allyloxyphenyl)-2-dimethylaminomethyl-6-methylcyclohexanol] | 20.2 mg/kg |  | ED50 [2]: 9.38 mg/kg
CC1CCCC(CN(C)C)C1(O)c1cccc(O)c1 (racemic) [Example 8, 3-(2-dimethylaminomethyl-1-hydroxy-6-methylcyclohexyl)-phenol] |  | 14.0 mg/kg | 
COc1cccc(C2(O)C(C)CCCC2CN(C)C)c1 (stereo not drawn) [Example 5, 2-dimethylaminomethyl-1-(3-methoxyphenyl)-6-methylcyclohexanol] |  |  | ED50 ([1]; po, orally (cell note)): 42.9 mg/kg; ED50 [2]: 11 mg/kg
COc1cccc(C2(O)C(C)CCCC2CN(C)C)c1 (stereo not drawn) [Example 6, 2-dimethylaminomethyl-1-(3-methoxyphenyl)-6-methylcyclohexanol] | 7.73 mg/kg | 6.58 mg/kg | 
CC1CCCC(CN(C)C)C1(O)c1cccc(O)c1 (stereo not drawn) [Example 9, 3-(2-dimethylaminomethyl-1-hydroxy-6-methylcyclohexyl)-phenol] |  | 19.8 mg/kg | ED50 tail-flick [1, 4]: 14.7 mg/kg
CC1CCCC(CN(C)C)C1(O)c1cccc(O)c1 (stereo not drawn) [Example 10, 3-(2-dimethylaminomethyl-1-hydroxy-6-methylcyclohexyl)-phenol] |  | 5.3 mg/kg | ED50 tail-flick [1, 4]: 0.91 mg/kg
CCOc1cccc(C2(O)C(C)CCCC2CN(C)C)c1 (stereo not drawn) [Example 11, 2-dimethylaminomethyl-1-(3-ethoxyphenyl)-6-methylcyclohexanol] |  | 21.6 mg/kg | 
CCOc1cccc(C2(O)C(C)CCCC2CN(C)C)c1 (stereo not drawn) [Example 12, 2-dimethylaminomethyl-1-(3-ethoxyphenyl)-6-methylcyclohexanol] | 13.4 mg/kg | 4.39 mg/kg | 
CC1CCCC(CN(C)C)C1(O)c1cccc(OC2CCCC2)c1 (stereo not drawn) [Example 14, 1-(3-cyclopentyloxyphenyl)-2-dimethylaminomethyl-6-methylcyclohexanol] | 20 mg/kg |  | ED50 [2]: 26.2 mg/kg
CC1CCCC(CN(C)C)C1(O)c1cccc(OCC2CCC2)c1 (stereo not drawn) [Example 16, 1-(3-cyclobutylmethoxyphenyl)-2-dimethylaminomethyl-6-methylcyclohexanol] | 21.5 mg/kg |  | ED50 [2]: 32.8 mg/kg
C#COc1cccc(C2(O)C(C)CCCC2CN(C)C)c1 (stereo not drawn) [Example 19, 2-dimethylaminomethyl-1-(3-ethynyloxyphenyl)-6-methylcyclohexanol] | 14.7 mg/kg |  | 
CC1CCCC(CN(C)C)C1(O)c1cccc(OC2CCC2)c1 (stereo not drawn) [Example 21, 1-(3-cyclobutoxyphenyl)-2-dimethylaminomethyl-6-methylcyclohexanol] | 30 mg/kg |  | 
